This is an account of results in patent US6452005B1, “JAK-3 inhibitors for treating allergic disorders” (Parker Hughes Institute, priority 1999, dated 2002).

Each structure is given as a SMILES string. Read-outs that look alike come from different tables or passages of the source.

Usually IC50 stands for the concentration that inhibits the measured activity by half. Higher therefore signals weaker potency in that assay.

The target of test [1] is T1, human JAK3 (Homo sapiens, UniProt P52333).
T1 construct: KL-2 EBV-transformed human lymphoblastoid B cells (native JAK3 kinase assays); endogenous in cells; host or cells: KL-2 EBV-transformed human lymphoblastoid B cell line
T1 sequence (P52333 1-1124): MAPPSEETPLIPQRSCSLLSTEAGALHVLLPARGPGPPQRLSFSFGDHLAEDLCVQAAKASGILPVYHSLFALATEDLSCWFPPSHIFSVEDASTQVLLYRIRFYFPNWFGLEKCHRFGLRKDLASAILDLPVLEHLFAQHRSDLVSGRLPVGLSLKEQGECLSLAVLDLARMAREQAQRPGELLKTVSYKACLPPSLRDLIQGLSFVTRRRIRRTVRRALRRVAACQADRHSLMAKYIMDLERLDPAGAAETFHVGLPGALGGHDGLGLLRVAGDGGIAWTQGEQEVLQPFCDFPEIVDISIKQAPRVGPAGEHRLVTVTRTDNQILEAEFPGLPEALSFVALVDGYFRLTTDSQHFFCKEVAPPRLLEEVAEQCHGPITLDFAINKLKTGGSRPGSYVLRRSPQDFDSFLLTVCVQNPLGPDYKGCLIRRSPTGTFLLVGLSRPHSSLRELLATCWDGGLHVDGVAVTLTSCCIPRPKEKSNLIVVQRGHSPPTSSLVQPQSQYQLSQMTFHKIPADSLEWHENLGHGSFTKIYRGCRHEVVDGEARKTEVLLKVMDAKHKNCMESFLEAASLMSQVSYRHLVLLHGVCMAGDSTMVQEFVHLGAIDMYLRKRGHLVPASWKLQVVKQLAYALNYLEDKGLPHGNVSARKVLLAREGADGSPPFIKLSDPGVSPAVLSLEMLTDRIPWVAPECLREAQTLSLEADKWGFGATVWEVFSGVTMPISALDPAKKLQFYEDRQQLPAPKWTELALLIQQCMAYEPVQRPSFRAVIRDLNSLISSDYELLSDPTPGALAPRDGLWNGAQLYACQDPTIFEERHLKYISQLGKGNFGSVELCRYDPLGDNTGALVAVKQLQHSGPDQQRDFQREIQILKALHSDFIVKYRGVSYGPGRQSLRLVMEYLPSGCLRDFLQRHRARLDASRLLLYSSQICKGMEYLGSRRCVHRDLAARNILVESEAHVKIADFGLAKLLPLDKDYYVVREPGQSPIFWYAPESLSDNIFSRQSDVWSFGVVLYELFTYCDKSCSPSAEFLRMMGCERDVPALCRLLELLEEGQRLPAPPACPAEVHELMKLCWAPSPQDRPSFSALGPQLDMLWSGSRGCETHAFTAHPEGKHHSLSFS
Nature of the test: JAK3 kinase inhibition (Table 1 IC50, immune complex kinase assay). It counts as biochemical. To be noted: for IC50: Table 1, measured inhibition values for JAK3 kinase. The method, then: Immune Complex Kinase Assays.
(§1) KL-2 EBV-transformed human lymphoblastoid B cells (native JAK3 kinase assays) or insect ovary cells (recombinant JAK3 kinase assays) were lysed with NP-40 lysis buffer (50 mM Tris, pH 8, 150 mM NaCl, 5 mM EDTA, 1% NP-40, 100 μM sodium orthovanadate, 100 μM sodium molybdate, 8 μg/ml aprotinin, 5 μg/ml leupeptin, and 500 μM PMSF) and centrifuged 10 minutes at 13000×g to remove insoluble material. Samples were immunoprecipitated with antisera prepared against JAK3. The antisera were diluted and immune complexes collected by incubation with 15 μl protein A Sepharose. After 4 washes with NP-40 lysis buffer, the protein A Sepharose beads were washed once in kinase buffer (20 mM MOPS, pH 7.0, 10 mM MgCl2) and resuspended in the same buffer. Reactions were initiated by the addition of 25 μCi γ[^32P] ATP (5000 Ci/mMole) and unlabeled ATP to a final concentration of 5 μM. Reactions were terminated by boiling for 4 min in SDS sample buffer. Samples were run on 9.5% SDS polyacrylamide gels and labeled proteins will be detected by autoradiography. Following electrophoresis, kinase gels were dried onto Whatman 3M filter paper and subjected to phosphoimaging on a Molecular Imager (Bio-Rad, Hercules, Calif.) as well as autoradiography on film. For each drug concentration, a kinase activity index (KA) was determined by comparing the kinase activity in phosphorimager units (PIU) to that of the baseline sample. In some experiments, cold kinase assays were performed, as described (Uckun et. al., 1998, Clin. Cancer Res., 4:901-912).

Test [2] has as its target T1, human JAK3. Nature of the test: Immune complex kinase assay, JAK3 immunoprecipitated from KL2 EBV-transformed lymphoblastoid B cell line. The class given is biochemical. As to conditions: JAK3 immunoprecipitated from KL2 cells. The method, then:
as §1, with “Following electrophoresis, kinase gels were dried onto Whatman 3M filter paper and subjected to phosphoimaging on a Molecular Imager (Bio-Rad, Hercules, Calif.) as well as autoradiography on film.” left out, “In some experiments, cold kinase assays were performed, as described (Uckun et. al., 1998, Clin. Cancer Res., 4:901-912).” left out

Test [3] concerns RBL-2H3 mast cells. Nature of the test: IgE/antigen-induced degranulation and mediator release. As to conditions: 1 h preincubation, DNP-BSA challenge; at ≧30 μM. The class given is cell-based, rat. From the text: Vehicle treated control RBL-2H3 cells released 45.1±3.1% of their hexosaminidase contents after DNP-BSA challenge. […] Vehicle treated control cells released 11.3±1.3 pg LTC4, and 160±33.0 pg TNFα/10^6 mast cells. The results on LTC4 and TNFα release are expressed as percent of maximum control release from vehicle treated control mast cells. The data points represent the mean±SEM values obtained from 3-6 independent experiments. […] *P<0.05 and **P<0.0001 compared to control as determined by Student's t test.
Supernatants were removed and saved.

Test [4] has as its system RBL-2H3 mast cells. Nature of the test: IgE/antigen-induced activation (cell spreading, microtubule organization) by confocal microscopy. It counts as cell-based, rat. To be noted: 30 μM, two hour incubation. The method, then:
RBL-2H3 cells were cultured overnight on 22×22 mm coverslips at a cell density of 0.01×10^6/ml with […] DNP-IgE. Sensitized RBL-2H3 cells were then treated with 30 μM WHI-P131, vehicle, or control compounds WHI-P258 and WHI-P112 prior to challenge with DNP-BSA, as described in the legend of FIG. 4. After stimulation with DNP-BSA for 1 hour, cells were fixed in cold methanol for 15 minutes followed by permeabilization with PBS containing 0.1% Triton X-100. […] After washing 3 times with PBS-0.1% Triton X-100, cells were incubated with fluorescein labeled secondary antibody (Zymed, San Francisco, Calif.) for another 40 minutes. Cells were washed three times to remove unbound antibody. DNA labeling was performed by incubation of coverslips with toto-3 (Molecular Probes, Eugene, Oreg.) for 10 minutes. Excessive dye was washed with PBS-0.1% Triton X-100. Cells were visualized under MRC 1024 Laser Scanning Microscope after mounting with Vectashield (Vector laboratories, Inc, Burlingame, Calif.), as previously reported.
Confocol Microscopy: Staining of mast cells with primary and secondary antibodies followed by confocal laser scanning microscopy was performed as previously described in detail (Uckun et. al., 1998, Clin. Cancer Res., 4:901-912). After staining with appropriate primary and secondary antibodies, cells were washed three times to remove unbound antibody. DNA labeling was performed by incubation of coverslips with toto-3 (Molecular Probes, Eugene, Oreg.) for 10 min. Excessive dye was washed with PBS-0.1% triton X-100. Cells were visualized under MRC 1024 Laser Scanning Microscope after mounting with Vectashield (Vector laboratories, Inc, Burlingame, Calif.).
In a systematic effort aimed at elucidating the biologic consequences of JAK3 inhibition in mast cells, we first sought to determine if the JAK3 inhibitor WHI-P131 could prevent the IgE receptor/FcεRI-mediated activation of mast cells. Since the IgE receptor/FcεRI-mediated activation of mast cells results in a distinct morphologic transformation with marked cell spreading due to membrane ruffling, microtubule formation and actin polymerization (Apgar, 1997), we evaluated the effects of WHI-P131 on the activation-associated transformation of shape and surface topography of RBL-2H3 mast cells using confocal laser scanning microscopy (Ghosh et. al., 1998).

For test [5], the system named is JAK3-dependent STAT activation. Nature of the test: EMSA, IL-2 triggered STAT activation in 32Dc11/IL2Rβ cells. As to conditions: 10 μg/ml, 32Dc11/IL2Rβ cells. It counts as cell-based. How it is done: Electrophoretic Mobility Shift Assays (EMSAs). EMSAs were performed to examine the effects of dimethoxyquinazoline compounds on cytokine-induced STAT activation (Goodman et. al., 1998). […] Cells were collected after 15 minutes and resuspended in lysis buffer (100 mM Tris-HCl pH 8.0, 0.5% NP-40, 10% glycerol, […], 0.1 mM NaVO3, 50 mM NaF, 150 mM NaCl, 1 mM DTT, 3 μg/ml Aprotinin, 2 μg/ml Pepstatin A, 1 μg/ml Leupeptin and 0.2 mM PMSF). Lysates were precleared by centrifugation for 30 min. Cell extracts (approximately 10 μg) were incubated with 2 μg of poly(dI-dC) for 30 minutes, followed by a 30 minutes incubation with 1ng of poly. nucleotide kinase-^32P labeled double stranded DNA oligonucleotide representing the IRF-1 STAT DNA binding sequence (Santa Cruz Biotechnology, Santa Cruz, Calif.). Samples were resolved by non-denaturing PAGE and visualized by autoradiography.

The test system of test [6] is mast cell. As to conditions: cited from earlier work.

Consider `COc1cc2ncnc(Nc3cccc(Br)c3)c2cc1OC` [WHI-P79, 4-(3′-Bromophenyl)-amino-6,7-dimethoxyquinazoline], for which the IC50 in test [1] was greater than 300 µM.
For the compound `COc1cc2ncnc(Nc3cc(Br)c(O)c(Br)c3)c2cc1OC` [WHI-P97, 4-(3′,5′-Dibromo-4′-hydroxylphenyl)-amino-6,7-dimethoxyquinazoline], the IC50 in test [1] and in test [2] was 11 µM each time.
For `COc1cc2ncnc(Nc3ccc(C)c(Br)c3)c2cc1OC` [WHI-P111, 4-(3′-Bromo-4-methylphenyl)-amino-6,7-dimethoxyquinazoline], in test [3], the LTC4 release result is recorded as “did not inhibit”, the TNFα release entry is listed as “did not inhibit” and the “β-hexosaminidase release (degranulation)” value was “did not inhibit”. In test [1], the “JAK3 inhibitory activity (in words)” value was “do not inhibit JAK3” and the IC50 was greater than 300 µM.
Regarding `COc1cc2ncnc(Nc3cc(Br)ccc3Br)c2cc1OC` [WHI-P112, 4-(2′,5′-Dibromophenyl)-amino-6,7-dimethoxyquinazoline], in test [3], the LTC4 release entry was “did not inhibit”, the TNFα release entry was “did not inhibit” and the “β-hexosaminidase release (degranulation)” value is “did not inhibit”. In addition, in test [1], the “JAK3 inhibitory activity (in words)” value is recorded as “do not inhibit JAK3” and the IC50 is greater than 200 µM. Besides, in test [1] (listed as WHI-112), the “JAK3 inhibitory activity (in words)” value is “does not inhibit JAK3”. For the same compound, the “IgE/antigen-induced mast cell activation (spreading and microtubule organization)” value in test [4] is “unable to produce any significant effects”.
Consider `COc1cc2ncnc(Nc3ccccc3O)c2cc1OC` [WHI-P132, 4-(2′-Hydroxylphenyl)-amino-6,7-dimethoxyquinazoline], for which the “JAK3-dependent STAT activation after stimulation with IL-2” value in test [5] is on record as “not”. Further, in test [1], the “JAK3 inhibitory activity (in words)” value is “inactive” and the IC50 was greater than 300 µM.
Consider `COc1cc2ncnc(Nc3cccc(O)c3)c2cc1OC` [WHI-P180, 4-(3′-hydroxyphenyl)-amino-6,7-dimethoxyquinazoline], for which the “potency relative to WHI-P258” value in test [6] (IgE/antigen induced mast cell responses) was “much more potent”. Besides, in test [6] (IgE/antigen induced), the “mast cell degranulation (β-hexasaminidase release)” value is “effectively inhibited” and the “secretion of newly synthesized mediators (LTC4 release)” value is on record as “effectively inhibited”. For the same compound, in test [1], the IC50 was 3 µM.
`COc1cc2ncnc(Nc3ccccc3)c2cc1OC` [WHI-P258, 4-(Phenyl)-amino-6,7-dimethoxyquinazoline]: in test [1], the “JAK3 inhibitory activity (in words)” value is listed as “lacks JAK3 inhibitory activity” and the IC50 is greater than 300 µM.
